Reference: the supplement of paper PMC10307832

Tests used:
Assay in all cases: relative viability (nuclei count vs DMSO), 5 days (fraction); higher = more cells survive
Silmitasertib = compound: O=C(O)c1ccc2c(c1)nc(Nc1cccc(Cl)c1)c1ccncc12 [Silmitasertib]
In short: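 In 1536-well plates, lung cancer cell lines rested overnight at 37 °C before five library-drug doses (not always all listed), √10 apart, were pinned onto vehicle-anchored plates. Nuclei were counted with MetaXpress from 4× Hoechst images taken after 5 days without medium change. Viability compares treated-well with vehicle-well nuclei as a median over plates, and plates needed control CV below 25% plus at least one doubling to pass.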

[1] = compound: O=C(O)c1ccc2c(c1)nc(Nc1cccc(Cl)c1)c1ccncc12 [Silmitasertib] + C[C@@H](Oc1cc(-c2cnn(C3CCNCC3)c2)cnc1N)c1c(Cl)ccc(F)c1Cl [Crizotinib] (partner 1 µM)
In short: (§1)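 Values are medians from duplicate plates. Each reflects relative viability, defined as the nuclei count of treated wells over that of vehicle wells. Lung cancer cell lines in 1536-well plates were pin-tool dosed one day after seeding with one drug alone or with a fixed anchor-drug dose plus five library-drug doses (not always all listed) in √10 steps, then fixed, stained and imaged at 4× after 5 days.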

[2] = compound: O=C(O)c1ccc2c(c1)nc(Nc1cccc(Cl)c1)c1ccncc12 [Silmitasertib] + CCNC(=O)c1noc(-c2cc(C(C)C)c(O)cc2O)c1-c1ccc(CN2CCOCC2)cc1 [Luminespib] (partner 0.01 µM)
In short: as §1

[3] = compound: O=C(O)c1ccc2c(c1)nc(Nc1cccc(Cl)c1)c1ccncc12 [Silmitasertib] + C[C@]1(O)C[C@@H](c2nc(-c3ccc4ccc(-c5ccccc5)nc4c3)c3c(N)nccn32)C1 [Linsitinib] (partner 1 µM)
In short: as §1

[4] = compound: O=C(O)c1ccc2c(c1)nc(Nc1cccc(Cl)c1)c1ccncc12 [Silmitasertib] + O=C(CCCCCCC(=O)Nc1ccccc1)NO [Vorinostat] (partner 1 µM)
In short: as §1

Cell Line | relative viability (Silmitasertib; 0.04 µM) | relative viability (Silmitasertib; 0.4 µM) | relative viability (Silmitasertib; 1.265 µM) | relative viability (Silmitasertib; 4 µM) | relative viability ([1]; first compound 0.04 µM) | relative viability ([1]; first compound 0.4 µM) | relative viability ([1]; first compound 1.265 µM) | relative viability ([1]; first compound 4 µM) | relative viability ([2]; first compound 0.04 µM) | relative viability ([2]; first compound 0.4 µM) | relative viability ([2]; first compound 1.265 µM) | relative viability ([2]; first compound 4 µM) | relative viability ([3]; first compound 0.04 µM) | relative viability ([3]; first compound 0.4 µM) | relative viability ([3]; first compound 1.265 µM) | relative viability ([3]; first compound 4 µM) | relative viability ([4]; first compound 0.04 µM) | relative viability ([4]; first compound 0.4 µM) | relative viability ([4]; first compound 1.265 µM) | relative viability ([4]; first compound 4 µM)
EKVX | 1.11 | 0.617 | 0.864 | 0.717 | 1.15 | 0.819 | 0.653 | 0.895 | 0.986 | 0.605 | 0.718 | 0.884 | 1.15 | 0.869 | 0.711 | 0.677 | 0.951 | 0.464 | 0.541 | 0.584
EMC-BAC-2 | 1.11 | 0.806 | 0.605 | 0.44 | 0.847 | 0.701 | 0.653 | 0.721 | 1.22 | 1.13 | 0.876 | 0.39 | 0.891 | 0.769 | 0.709 | 0.686 | 0.595 | 0.455 | 0.287 | 0.169
EPLC-272H | 1.25 |  | 0.807 | 0.154 | 0.992 |  | 0.469 | 0.407 | 1.05 |  | 0.18 | 0.181 | 1.31 |  | 0.84 | 0.862 | 0.454 | 0.685 | 0.391 | 0.13
H3255 | 1.05 | 0.877 | 0.946 | 0.906 | 0.888 | 0.701 | 0.883 | 0.864 | 0.893 | 0.849 | 1.02 | 0.504 | 1.09 | 0.944 | 0.903 | 0.991 | 0.747 | 0.772 | 0.868 | 0.645
HARA | 1.13 | 0.678 | 0.668 | 0.38 | 1.1 | 0.757 | 0.621 | 0.88 | 0.738 | 0.724 | 0.396 | 0.646 | 1.1 | 0.753 | 0.77 | 0.729 | 0.627 | 0.301 | 0.464 | 0.416
HCC-15 | 1.11 | 0.769 | 0.825 | 0.377 | 0.804 | 0.603 | 0.71 | 0.575 | 0.368 | 0.204 | 0.281 | 0.207 | 0.882 | 0.681 | 0.671 | 0.475 | 1.02 | 0.699 | 0.579 | 0.671
HCC-44 | 1.03 | 0.963 | 1.03 | 0.544 | 0.729 | 0.697 | 0.839 | 0.771 | 1.14 | 1.07 | 1.05 | 1.09 | 0.7 | 0.673 | 0.665 | 0.691 | 1.06 | 0.903 | 1.24 | 1.16
HCC-78 | 1.05 | 0.697 | 0.654 | 0.764 | 0.379 | 0.31 | 0.298 | 0.323 |  |  |  |  | 0.723 | 0.469 | 0.375 | 0.481 | 0.459 | 0.421 | 0.402 | 0.437
